Measured values published in PubChem BioAssay AID1919008 (Molecular Pharmacology Branch, DTP, NCI, 2023).

Test system: DMS-114 complex spheroids with HUVEC/MSC, growth % test/control
Test: Anticancer human tumor DMS-114 cell line growth inhibition [AhR];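 further: spheroids exposed to agents for 7 days before readout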;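 on viability, T/C: 100% = DMSO vehicle control wells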
Details: for IC50: curve of first compound; for viability, T/C: stronger effect = lower value
Excerpt: Multicellular complex tumor spheroid response to aryl hydrocarbon receptor antagonists in combination with a variety of drugs and investigational agents in selected tumor cell lines
The current study was undertaken to assess response to aryl hydrocarbon receptor antagonists in combination with standard-of-care drugs and investigational agents in solid tumor complex spheroid models. Complex spheroids include a stromal component modeled by human endothelial cells (HUVEC) and fibroblasts modeled by human mesenchymal stem cells (MSCs). The concentration ranges selected for each drug and investigational agent were based upon clinically achievable concentrations if the clinical Cmax of the agent was known.
Compounds. The drugs and investigational agents: BAY 2416964 (NSC825713), GNF351 (NSC835774), CH-223191 (NSC835775), CPI-455 (NSC825282), aza-TdCyd (NSC777586), decitabine (NSC127716), belinostat (NSC758774), entinostat (NSC756642), pevonedistat (NSC761192), tazemetostat (NSC777109), talazoparib (NSC765396), olaparib (NSC753686), selinexor (NSC780203), nedisertib (M3814, NSC802822), bortezomib (NSC756655), venetoclax (NSC766270), doxorubicin (NSC123127), elimusertib (BAY189344, NSC800525), ceralasertib (AZD6738, NSC777638), TAK-243 (NSC785004), alisertib (NSC759677), etoposide (NSC141540), topotecan (NSC609699), eribulin (NSC707389), gemcitabine (NSC613327), carboplatin (NSC241240), cisplatin (NSC119875), and SN-38 (NSC673596) were obtained from the National Cancer Institute (NCI) Developmental Therapeutics Program Chemical Repository (32). The FDA-approved anticancer drug set is available from the Developmental Therapeutics Program at https://dtp.cancer.gov/organization/dscb/obtaining/available plates.htm. […] The stock solutions were prepared in dimethyl sulfoxide (DMSO, Sigma-Aldrich, St. Louis, MO, cat. D2650), except for the platinum compounds which were prepared in saline (Quality Biological, Gaithersburg, MD, cat. 114-055-101), at 800-fold the tested concentration and stored at -70 degrees C prior to their use. All drugs and investigational agents were tested over a range starting from a high concentration at or near the clinical Cmax and decreasing in half-log increments. If the clinical Cmax for an agent had not been determined, the highest concentration tested was 10 microM (Table 1).
Cell Culture. All cells were maintained in an incubator at 37 degrees C and 5% CO2 with 95% humidity. The PDC lines were cultured according to standard operating procedures established by the NCI PDMR (https://pdmr.cancer.gov). Briefly, all PDCs were thawed and cultured in Matrigel-coated flasks prepared with a working solution of 1X Ham's F-12 nutrient mix, without supplementation (Invitrogen, Waltham, MA, cat. 11765054), 100 U/mL penicillin-streptomycin (Invitrogen, cat. 15140122), and 2.5% Matrigel (Corning Inc., Corning, NY, cat. 354248) for the first three passages. All PDCs were cultured in complete DMEM/F-12 media containing advanced DMEM/F-12 (Invitrogen, cat. 12634028), 4.9% defined fetal bovine serum, heat inactivated (HyClone Laboratories Inc., Logan, UT, cat. SH30070.03HI), 389 ng/mL hydrocortisone (Sigma-Aldrich, cat. H4001), 9.7 ng/mL human EGF recombinant protein (Invitrogen, cat. PHG0313), 23.4 microg/mL adenine (Sigma-Aldrich, cat. A2786), 97.3 U/mL penicillin-streptomycin (Invitrogen, cat. 15140122), 1.9 mM L-glutamine (Invitrogen, cat. 25030081), and 9.7 microM Y-27632 dihydrochloride (Tocris Bioscience, Bristol, United Kingdom, cat. 1254). The PDCs were cultured in complete DMEM/F12 media without 10 microM Y-27632 dihydrochloride for at least two passages prior to the screen. The established cell lines NCI-H1341 and […] were cultured in DMEM/F-12, HEPES (Invitrogen, cat. 11330032), 5% defined fetal bovine serum (HyClone Laboratories Inc., cat. SH30070.03), ITS premix universal culture supplement [insulin (5 microg/mL), transferrin (5 microg/mL), and selenious acid (5 ng/mL)] […]

[1] = second compound 0.1 µM, first compound 0.0316 µM
[2] = second compound 0.1 µM, first compound 0.1 µM
[3] = second compound 0.316 µM, first compound 0.0316 µM
[4] = second compound 0.316 µM, first compound 0.1 µM
[5] = second compound 1 µM, first compound 0.0316 µM
[6] = second compound 1 µM, first compound 0.1 µM
[7] = second compound 3.16 µM, first compound 0.0316 µM
[8] = second compound 3.16 µM, first compound 0.1 µM
[9] = second compound 10 µM, first compound 0.0316 µM
[10] = second compound 10 µM, first compound 0.1 µM

`CC[C@@]1(O)C(=O)OCc2c1cc1n(c2=O)Cc2cc3c(CN(C)C)c(O)ccc3nc2-1` + CC(CO)NC(=O)c1cc(-c2ccc(Cl)cc2)nn(-c2cnn(C)c2)c1=O was tested, and the IC50 (second compound 0.1 µM) was 0.0346 µM, the IC50 (second compound 0.316 µM) was 0.0324 µM and the IC50 (second compound 1 µM) was 0.0372 µM. For the same compound, the IC50 (second compound 3.16 µM) was 0.0327 µM, the IC50 (second compound 10 µM) was 0.0328 µM and the viability, T/C (second compound 0.1 µM, first compound 0.000316 µM) was 101%. It also gave a viability, T/C (second compound 0.1 µM, first compound 0.001 µM) of 103%, a viability, T/C (second compound 0.1 µM, first compound 0.00316 µM) of 95.7% and a viability, T/C (second compound 0.1 µM, first compound 0.01 µM) of 95.2%. For the same compound, the viability, T/C [1] was 51.9%, the viability, T/C [2] was 27.2% and the viability, T/C (second compound 0.316 µM, first compound 0.000316 µM) was 105%. The viability, T/C (second compound 0.316 µM, first compound 0.001 µM) was 99%, the viability, T/C (second compound 0.316 µM, first compound 0.00316 µM) was 83.2% and the viability, T/C (second compound 0.316 µM, first compound 0.01 µM) was 81.3%. It also gave a viability, T/C [3] of 46%, a viability, T/C [4] of 26.9% and a viability, T/C (second compound 1 µM, first compound 0.000316 µM) of 88.9%. For the same compound, the viability, T/C (second compound 1 µM, first compound 0.001 µM) was 95.2%, the viability, T/C (second compound 1 µM, first compound 0.00316 µM) was 90% and the viability, T/C (second compound 1 µM, first compound 0.01 µM) was 85.5%. It also gave a viability, T/C [5] of 54.6%, a viability, T/C [6] of 21.9% and a viability, T/C (second compound 3.16 µM, first compound 0.000316 µM) of 104%. For the same compound, the viability, T/C (second compound 3.16 µM, first compound 0.001 µM) was 100%, the viability, T/C (second compound 3.16 µM, first compound 0.00316 µM) was 92.1% and the viability, T/C (second compound 3.16 µM, first compound 0.01 µM) was 74.2%. It also gave a viability, T/C [7] of 51%, a viability, T/C [8] of 26.4% and a viability, T/C (second compound 10 µM, first compound 0.000316 µM) of 116%. The viability, T/C (second compound 10 µM, first compound 0.001 µM) was 105%, the viability, T/C (second compound 10 µM, first compound 0.00316 µM) was 95.1% and the viability, T/C (second compound 10 µM, first compound 0.01 µM) was 92.7%. The viability, T/C [9] was 48.1% and the viability, T/C [10] was 25.4%.
In the case of `CCc1c2c(nc3ccc(O)cc13)-c1cc3c(c(=O)n1C2)COC(=O)[C@]3(O)CC` + CC(CO)NC(=O)c1cc(-c2ccc(Cl)cc2)nn(-c2cnn(C)c2)c1=O, the IC50 (second compound 0.1 µM) is reported as 0.0016 µM, the IC50 (second compound 0.316 µM) is reported as 0.00109 µM and the IC50 (second compound 1 µM) is reported as less than 0.000949 µM. For the same compound, the IC50 (second compound 3.16 µM) was less than 0.000949 µM, the IC50 (second compound 10 µM) was less than 0.000949 µM and the viability, T/C (second compound 0.1 µM, first compound 0.000949 µM) was 56.4%. The viability, T/C (second compound 0.1 µM, first compound 0.003 µM) was 42.4%, the viability, T/C (second compound 0.1 µM, first compound 0.00949 µM) was 23.2% and the viability, T/C (second compound 0.1 µM, first compound 0.03 µM) was 17.5%. It also gave a viability, T/C (second compound 0.1 µM, first compound 0.0949 µM) of 17.7%, a viability, T/C (second compound 0.1 µM, first compound 0.3 µM) of 16.2% and a viability, T/C (second compound 0.316 µM, first compound 0.000949 µM) of 51.4%. It also gave a viability, T/C (second compound 0.316 µM, first compound 0.003 µM) of 40.4%, a viability, T/C (second compound 0.316 µM, first compound 0.00949 µM) of 21.2% and a viability, T/C (second compound 0.316 µM, first compound 0.03 µM) of 15.8%. The viability, T/C (second compound 0.316 µM, first compound 0.0949 µM) was 15.7%, the viability, T/C (second compound 0.316 µM, first compound 0.3 µM) was 15.4% and the viability, T/C (second compound 1 µM, first compound 0.000949 µM) was 49.4%. It also gave a viability, T/C (second compound 1 µM, first compound 0.003 µM) of 37.8%, a viability, T/C (second compound 1 µM, first compound 0.00949 µM) of 21% and a viability, T/C (second compound 1 µM, first compound 0.03 µM) of 15.4%. It also gave a viability, T/C (second compound 1 µM, first compound 0.0949 µM) of 18.8%, a viability, T/C (second compound 1 µM, first compound 0.3 µM) of 17.6% and a viability, T/C (second compound 3.16 µM, first compound 0.000949 µM) of 47.9%. For the same compound, the viability, T/C (second compound 3.16 µM, first compound 0.003 µM) was 31.5%, the viability, T/C (second compound 3.16 µM, first compound 0.00949 µM) was 20.7% and the viability, T/C (second compound 3.16 µM, first compound 0.03 µM) was 13.9%. The viability, T/C (second compound 3.16 µM, first compound 0.0949 µM) was 15.3%, the viability, T/C (second compound 3.16 µM, first compound 0.3 µM) was 16.6% and the viability, T/C (second compound 10 µM, first compound 0.000949 µM) was 43.5%. For the same compound, the viability, T/C (second compound 10 µM, first compound 0.003 µM) was 35.9%, the viability, T/C (second compound 10 µM, first compound 0.00949 µM) was 22.4% and the viability, T/C (second compound 10 µM, first compound 0.03 µM) was 15.1%. For the same compound, the viability, T/C (second compound 10 µM, first compound 0.0949 µM) was 15.7% and the viability, T/C (second compound 10 µM, first compound 0.3 µM) was 16.6%.
`Nc1ccn(C2OC(CO)C(O)C2(F)F)c(=O)n1` (stereo not given) + CC(CO)NC(=O)c1cc(-c2ccc(Cl)cc2)nn(-c2cnn(C)c2)c1=O was tested, and the IC50 (second compound 0.1 µM) was less than 0.0316 µM, the IC50 (second compound 0.316 µM) was less than 0.0316 µM and the IC50 (second compound 1 µM) was less than 0.0316 µM. It also gave an IC50 (second compound 3.16 µM) of less than 0.0316 µM, an IC50 (second compound 10 µM) of less than 0.0316 µM and a viability, T/C [1] of 12.1%. For the same compound, the viability, T/C [2] was 11.5%, the viability, T/C (second compound 0.1 µM, first compound 0.316 µM) was 11.5% and the viability, T/C (second compound 0.1 µM, first compound 1 µM) was 11.7%. The viability, T/C (second compound 0.1 µM, first compound 3.16 µM) was 11.6%, the viability, T/C (second compound 0.1 µM, first compound 10 µM) was 10.9% and the viability, T/C [3] was 11.8%. For the same compound, the viability, T/C [4] was 11.9%, the viability, T/C (second compound 0.316 µM, first compound 0.316 µM) was 13% and the viability, T/C (second compound 0.316 µM, first compound 1 µM) was 10.9%. It also gave a viability, T/C (second compound 0.316 µM, first compound 3.16 µM) of 11.6%, a viability, T/C (second compound 0.316 µM, first compound 10 µM) of 12.8% and a viability, T/C [5] of 12.6%. For the same compound, the viability, T/C [6] was 14.1%, the viability, T/C (second compound 1 µM, first compound 0.316 µM) was 14.4% and the viability, T/C (second compound 1 µM, first compound 1 µM) was 12.3%. It also gave a viability, T/C (second compound 1 µM, first compound 3.16 µM) of 10.6%, a viability, T/C (second compound 1 µM, first compound 10 µM) of 12.6% and a viability, T/C [7] of 10.6%. It also gave a viability, T/C [8] of 13.3%, a viability, T/C (second compound 3.16 µM, first compound 0.316 µM) of 12.9% and a viability, T/C (second compound 3.16 µM, first compound 1 µM) of 10.6%. The viability, T/C (second compound 3.16 µM, first compound 3.16 µM) was 11.2%, the viability, T/C (second compound 3.16 µM, first compound 10 µM) was 11.1% and the viability, T/C [9] was 11.6%. For the same compound, the viability, T/C [10] was 11.8%, the viability, T/C (second compound 10 µM, first compound 0.316 µM) was 12.7% and the viability, T/C (second compound 10 µM, first compound 1 µM) was 11.3%. For the same compound, the viability, T/C (second compound 10 µM, first compound 3.16 µM) was 12.7% and the viability, T/C (second compound 10 µM, first compound 10 µM) was 11.9%.
